Literature values as cited in patent publication US20070276004A1, “Pharmaceutical Composition Comprising an Immunosuppressant for Use in the Treatment of Skin Diseases” (priority 2003, published 2007).

Test system: allogeneic kidney transplantation
Conditions: rat model of allogeneic kidney transplantation; oral administration; suppression of systemic immune response

C=CC[C@@H]1/C=C(\C)C[C@H](C)C[C@H](OC)[C@H]2O[C@@](O)(C(=O)C(=O)N3CCCC[C@H]3C(=O)O[C@H](/C(C)=C/[C@@H]3CC[C@@H](O)[C@H](OC)C3)[C@H](C)[C@@H](O)CC1=O)[C@H](C)C[C@@H]2OC [tacrolimus]
minimum effective dose (MED): 14 mg/kg
